# Compound: C1CC(C2=C(C1)C3=C(N2)C=CC(=C3)Cl)C(=O)N [Selisistat] + NC(=O)Nc1cc(-c2cccc(F)c2)sc1C(=O)N[C@H]1CCCNC1 [AZD7762] (partner 0.2 µM)
# Assay: relative viability (nuclei count vs DMSO), 5 days (fraction); higher = more cells survive
# Conditions: first compound 0.4 µM
# How it was run: (§1)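 Medians of duplicate plates are given as relative viability. That measure is the nuclei count in treated wells divided by the count in vehicle wells. Counts were taken on 4× images of lung cancer cell lines in 1536-well plates, 5 days after pin-tool dosing the day after seeding with one drug alone or a fixed anchor-drug dose plus five library-drug doses (not always all listed) in √10 steps.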
row,Cell Line,relative viability
1,ABC-1,0.791
2,NCI-H358,0.532
3,NCI-H650,1.15
4,PC-3 [JPC-3],0.834

# Same assay, conditions: first compound 1.265 µM
row,Cell Line,relative viability
1,ABC-1,0.778
2,NCI-H358,0.589
3,NCI-H650,0.988
4,PC-3 [JPC-3],0.861

# Same assay, conditions: first compound 4 µM
row,Cell Line,relative viability
1,NCI-H650,1

# Same assay, conditions: first compound 12.65 µM
row,Cell Line,relative viability
1,ABC-1,0.829
2,NCI-H358,0.518
3,NCI-H650,0.867
4,PC-3 [JPC-3],0.744

# Same assay, conditions: first compound 40 µM
row,Cell Line,relative viability
1,ABC-1,1.08
2,NCI-H358,0.639
3,NCI-H650,1.13
4,PC-3 [JPC-3],0.695

# Compound: C1CC(C2=C(C1)C3=C(N2)C=CC(=C3)Cl)C(=O)N [Selisistat] + Cc1cc(Nc2cc(N3CCN(C)CC3)nc(Sc3ccc(NC(=O)C4CC4)cc3)n2)n[nH]1 [Tozasertib] (partner 0.1 µM)
# Assay: as above
# Conditions: first compound 0.4 µM
# How it was run: as §1
row,Cell Line,relative viability
1,ABC-1,0.184
2,NCI-H358,0.0984
3,NCI-H650,0.783
4,PC-3 [JPC-3],0.917

# Same assay, conditions: first compound 1.265 µM
row,Cell Line,relative viability
1,ABC-1,0.179
2,NCI-H358,0.1
3,NCI-H650,0.674
4,PC-3 [JPC-3],0.853

# Same assay, conditions: first compound 4 µM
row,Cell Line,relative viability
1,ABC-1,0.17
2,NCI-H358,0.102
3,NCI-H650,0.717
4,PC-3 [JPC-3],0.82

# Same assay, conditions: first compound 12.65 µM
row,Cell Line,relative viability
1,ABC-1,0.176
2,NCI-H358,0.092
3,NCI-H650,0.622
4,PC-3 [JPC-3],0.857

# Same assay, conditions: first compound 40 µM
row,Cell Line,relative viability
1,ABC-1,0.149
2,NCI-H358,0.0962
3,NCI-H650,0.66
4,PC-3 [JPC-3],0.915

# Compound: C1CC(C2=C(C1)C3=C(N2)C=CC(=C3)Cl)C(=O)N [Selisistat] + COc1cc2c(Oc3ccc(NC(=O)C4(C(=O)Nc5ccc(F)cc5)CC4)cc3F)ccnc2cc1OCCCN1CCOCC1 [Foretinib] (partner 0.25 µM)
# Assay: as above
# Conditions: first compound 0.4 µM
# How it was run: as §1
row,Cell Line,relative viability
1,ABC-1,0.927
2,NCI-H358,0.808
3,NCI-H650,1.02
4,PC-3 [JPC-3],1.07

# Same assay, conditions: first compound 1.265 µM
row,Cell Line,relative viability
1,ABC-1,1.04
2,NCI-H358,0.763
3,NCI-H650,1.03
4,PC-3 [JPC-3],1.04

# Same assay, conditions: first compound 4 µM
row,Cell Line,relative viability
1,ABC-1,0.929
2,NCI-H358,0.553
3,NCI-H650,1.24
4,PC-3 [JPC-3],1.01

# Same assay, conditions: first compound 12.65 µM
row,Cell Line,relative viability
1,ABC-1,1.08
2,NCI-H358,0.727
3,NCI-H650,0.98
4,PC-3 [JPC-3],1.07

# Same assay, conditions: first compound 40 µM
row,Cell Line,relative viability
1,ABC-1,1.16
2,NCI-H358,0.833
3,NCI-H650,0.992
4,PC-3 [JPC-3],1.06

# Compound: c1ccc2c(CCNc3ccc(Nc4ccncc4)cc3)c[nH]c2c1 [Serdemetan] + Cc1nc(NC(=O)N2CCC[C@H]2C(N)=O)sc1-c1ccnc(C(C)(C)C(F)(F)F)c1 [Alpelisib] (partner 2 µM)
# Assay: as above
# Conditions: first compound 0.04 µM
# How it was run: as §1
row,Cell Line,relative viability
1,ABC-1,1.16
2,NCI-H358,0.86
3,NCI-H650,0.965
4,PC-3 [JPC-3],1.04

# Same assay, conditions: first compound 0.1265 µM
row,Cell Line,relative viability
1,ABC-1,1.14
2,NCI-H358,0.946
3,NCI-H650,1.15
4,PC-3 [JPC-3],0.979

# Same assay, conditions: first compound 0.4 µM
row,Cell Line,relative viability
1,ABC-1,0.965
2,NCI-H358,0.906
3,NCI-H650,1.11

# Same assay, conditions: first compound 1.265 µM
row,Cell Line,relative viability
1,ABC-1,0.812
2,NCI-H358,0.679
3,NCI-H650,0.92
4,PC-3 [JPC-3],1.01

# Same assay, conditions: first compound 4 µM
row,Cell Line,relative viability
1,ABC-1,0.486
2,NCI-H358,0.734
3,NCI-H650,0.67
4,PC-3 [JPC-3],1.05
